Data from patent US20250197387A1, “BCL-XL DEGRADERS AND USES THEREOF” (Kymera Therapeutics, Inc., priority 2021, published 2025).

Assays:
Type in all cases: cell-based
[1] = target: T1, BCL-XL (Homo sapiens, UniProt Q07817); experiment: Bcl-xL ELISA degradation in MOLT-4 cells, 6 h; conditions: for DC50: read-out: Bcl-xL ELISA in MOLT-4 degradation 6 h: Mean external-Abs DC50
T1 construct: endogenous in cells; host or cells: MOLT-4
Experimental: The letter codes for BCL-XL DC50 include: A (<0.01 μM); B (0.01-0.1 μM); C (>[…]); D (>0.5-1.0 μM); and E (>1.0 μM). The letter codes for Dmax % include A (>75%); B (50 to 75%); C (<50%).

[2] = system: MOLT-4 cells; experiment: CTG (CellTiter-Glo) cell viability assay, MOLT-4; conditions: Homo sapiens, MOLT-4, 72 h, 3 day incubation, read-out: CTG Cell Viability Assay - MOLT-4 3 day: Average external-IC50
How it was run: (§1)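 10,000 cells/well; 9 doses, 1:3 from 10 μM top; 0.2% DMSO; 3 d, 37 °C, 5% CO2; CTG luminescence; IC50 via 3-parameter logistic fit. Letter bins differ: Caki-2 C/D cut at 10.0 μM, MOLT-4 at 3.0 μM.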

[3] = system: Caki-2 cells; experiment: CTG (CellTiter-Glo) cell viability assay, Caki-2; conditions: Homo sapiens, 72 h, 3 day incubation, read-out: CTG Chempartner - Caki-2 3 day: Average external-IC50
How it was run: as §1

T1 sequence (Q07817 whole entry): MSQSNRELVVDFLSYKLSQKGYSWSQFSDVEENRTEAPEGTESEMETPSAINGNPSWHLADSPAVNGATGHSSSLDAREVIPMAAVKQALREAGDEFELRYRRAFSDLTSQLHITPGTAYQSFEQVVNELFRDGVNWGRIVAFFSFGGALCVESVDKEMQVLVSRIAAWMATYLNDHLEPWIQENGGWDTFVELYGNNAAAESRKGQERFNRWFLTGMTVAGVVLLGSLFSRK

Compound | Dmax [1] | DC50 [1] | IC50 [2] | IC50 [3]
Cc1ncsc1-c1ccc([C@H](C)NC(=O)[C@@H]2C[C@@H](O)CN2C(=O)[C@@H](NC(=O)CCCCCCS(=O)(=O)NC(=O)c2nc(N3CCc4cccc(C(=O)Nc5nc6ccccc6s5)c4C3)ccc2-c2cnn(CC3CCCCC3)c2C)C(C)(C)C)cc1 [I-312] | > 75% | 10 to 100 nM | < 100 nM | 1000 to 10000 nM
C#Cc1ccc(CNC(=O)[C@@H]2C[C@@H](O)CN2C(=O)[C@H](c2cc(N3CCN(c4ccc(S(=O)(=O)NC(=O)c5nc(N6CCc7cccc(C(=O)Nc8nc9ccccc9s8)c7C6)ccc5-c5cnn(CC6CCCCC6)c5C)cc4)CC3)no2)C(C)C)cc1 [I-407] | 50 to 75% | 100 to 500 nM | 100 to 1000 nM | 1000 to 10000 nM
Cc1ncsc1-c1ccc([C@H](C)NC(=O)[C@@H]2C[C@@H](O)CN2C(=O)[C@@H](NC(=O)CCCS(=O)(=O)NC(=O)c2nc(N3CCc4cccc(C(=O)Nc5nc6cccnc6s5)c4C3)ccc2-c2cnn(CC3CCCCC3)c2C)C(C)(C)C)cc1 [I-331] | 50 to 75% | 100 to 500 nM | 100 to 1000 nM | > 10000 nM
Cc1cc(N(C)c2ccc(-c3cnn(CC45CC6CC(CC(C6)C4)C5)c3C)c(C(=O)NS(=O)(=O)CCCCCc3ccc4c(c3)n(C)c(=O)n4C3CCC(=O)NC3=O)n2)nnc1Nc1nc2ccccc2s1 (centres unmarked) [I-424] | > 75% | < 10 nM | < 100 nM | 1000 to 10000 nM
Cc1ncsc1-c1ccc(CNC(=O)[C@@H]2C[C@@H](O)CN2C(=O)[C@@H](NC(=O)CCc2ccc(S(=O)(=O)NC(=O)c3nc(N4CCc5cccc(C(=O)Nc6nc7ccccc7s6)c5C4)ccc3-c3cnn(CC4CCCCC4)c3C)cn2)C(C)(C)C)cc1 [I-342] | > 75% | 100 to 500 nM | 100 to 1000 nM | > 10000 nM
COc1nn(C)c2ccc([C@@H](C)NC(=O)[C@@H]3C[C@@H](O)CN3C(=O)[C@@H](NC(=O)CCCCCS(=O)(=O)NC(=O)c3nc(N4CCc5cccc(C(=O)Nc6nc7cccnc7s6)c5C4)ccc3-c3cnn(CC4CCCCC4)c3C)C(C)(C)C)cc12 [I-490] | > 75% | 100 to 500 nM | 100 to 1000 nM | > 10000 nM
Cc1ncsc1-c1ccc([C@H](C)NC(=O)[C@@H]2C[C@@H](O)CN2C(=O)[C@H](NC(=O)CCCCCS(=O)(=O)NC(=O)c2nc(N3CCc4cccc(C(=O)Nc5nc6ccccc6s5)c4C3)ccc2-c2cnn(CC3CCCCC3)c2C)C(C)(C)CCOP(=O)(O)O)cc1 [I-416] | > 75% | 100 to 500 nM | > 3000 nM | > 10000 nM
Cc1ncsc1-c1ccc([C@H](C)NC(=O)[C@@H]2C[C@@H](O)CN2C(=O)[C@@H](NC(=O)C2CCCN(c3ccc(S(=O)(=O)NC(=O)c4nc(N5CCc6cccc(C(=O)Nc7nc8ccccc8s7)c6C5)ccc4-c4cnn(CC5CCCCC5)c4C)cc3)C2)C(C)(C)C)cc1 (some centres unmarked) [I-419] | > 75% | < 10 nM | < 100 nM | 1000 to 10000 nM
Cc1ncsc1-c1ccc([C@H](C)NC(=O)[C@@H]2C[C@@H](O)CN2C(=O)[C@@H](NC(=O)c2ccc(NC3CCCN(S(=O)(=O)NC(=O)c4nc(N5CCc6cccc(C(=O)Nc7nc8ccccc8s7)c6C5)ccc4-c4cnn(CC5CCCCC5)c4C)C3)cc2)C(C)(C)C)cc1 (some centres unmarked) [I-325] | 50 to 75% | 100 to 500 nM | < 100 nM | 1000 to 10000 nM
Cc1ncsc1-c1ccc(CNC(=O)[C@@H]2C[C@@H](O)CN2C(=O)[C@@H](NC(=O)CCc2ccc(S(=O)(=O)NC(=O)c3nc(N4CCc5cccc(C(=O)Nc6nc7ccccc7s6)c5C4)ccc3-c3cnn(CC(C)C)c3C)cc2)C(C)(C)C)cc1 [I-318] | > 75% | 10 to 100 nM | < 100 nM | 1000 to 10000 nM
Cc1ncsc1-c1ccc([C@H](CO)NC(=O)[C@@H]2C[C@@H](O)CN2C(=O)[C@@H](NC(=O)CCNCCS(=O)(=O)NC(=O)c2nc(N3CCc4cccc(C(=O)Nc5nc6cccnc6s5)c4C3)ccc2-c2cnn(CC3CCCCC3)c2C)C(C)(C)C)cc1 [I-377] | > 75% | < 10 nM | 1000 to 3000 nM | > 10000 nM
C#Cc1ccc(CNC(=O)[C@@H]2C[C@@H](O)CN2C(=O)[C@@H](NC(=O)CCCCCS(=O)(=O)NC(=O)c2nc(N3CCc4cccc(C(=O)Nc5nc6ccccc6s5)c4C3)ccc2-c2cnn(CC(C)(C)C)c2C)C(C)(C)C)cc1 [I-471] | > 75% | 10 to 100 nM | < 100 nM | > 10000 nM
COc1nn(C)c2ccc(CNC(=O)[C@@H]3C[C@@H](O)CN3C(=O)[C@@H](NC(=O)CCCCCS(=O)(=O)NC(=O)c3nc(N4CCc5cccc(C(=O)Nc6nc7cccnc7s6)c5C4)ccc3-c3cnn(CC4CCCCC4)c3C)C(C)(C)C)cc12 [I-483] | > 75% | 10 to 100 nM | < 100 nM | > 10000 nM
Cc1ncsc1-c1ccc([C@H](C)NC(=O)[C@@H]2C[C@@H](O)CN2C(=O)[C@@H](NC(=O)CCNCCS(=O)(=O)NC(=O)c2nc(N3CCc4cccc(C(=O)Nc5nc6cccnc6s5)c4C3)ccc2-c2cnn(CC3CCCCC3)c2C)C(C)(C)C)cc1 [I-376] | > 75% | 10 to 100 nM | > 3000 nM | > 10000 nM
Cc1c(-c2ccc(N3CCc4cccc(C(=O)Nc5nc6ccccc6s5)c4C3)nc2C(=O)NS(=O)(=O)CCCCCc2cccc3c2n(C)c(=O)n3C2CCC(=O)NC2=O)cnn1CC1CCCCC1 (centres unmarked) [I-426] | > 75% | < 10 nM | < 100 nM | 1000 to 10000 nM
Cc1cc(N(C)c2ccc(-c3cnn(CC4CCCCC4)c3C)c(C(=O)NS(=O)(=O)CCCCCC(=O)N[C@H](C(=O)N3C[C@H](O)C[C@H]3C(=O)N[C@@H](C)c3ccc(-c4scnc4C)cc3)C(C)(C)C)n2)nnc1Nc1nc2cccnc2s1 [I-436] | > 75% | 500 to 1000 nM | 1000 to 3000 nM | > 10000 nM
Cc1cc(N(C)c2ccc(-c3cnn(CC(C)(C)C)c3C)c(C(=O)NS(=O)(=O)c3ccc(N4CCC(C(=O)N[C@H](C(=O)N5C[C@H](O)C[C@H]5C(=O)N[C@@H](C)c5ccc(-c6scnc6C)cc5)C(C)(C)C)CC4)cc3)n2)nnc1Nc1nc2cccnc2s1 [I-456] | < 50% | > 1000 nM | > 3000 nM | > 10000 nM
Cc1ncsc1-c1ccc([C@H](C)NC(=O)[C@@H]2C[C@@H](O)CN2C(=O)[C@@H](NC(=O)C2CCN(c3cccc(S(=O)(=O)NC(=O)c4nc(N5CCc6cccc(C(=O)Nc7nc8ccccc8s7)c6C5)ccc4-c4cnn(CC5CCCCC5)c4C)c3)CC2)C(C)(C)C)cc1 [I-380] | > 75% | < 10 nM | < 100 nM | 1000 to 10000 nM
C#Cc1ccc(CNC(=O)[C@@H]2C[C@@H](O)CN2C(=O)[C@@H](NC(=O)CCN(C)CCS(=O)(=O)NC(=O)c2nc(N(C)c3cc(C)c(Nc4nc5ccccc5s4)nn3)ccc2-c2cnn(CC34CC5CC(CC(C5)C3)C4)c2C)C(C)(C)C)cc1 [I-430] | > 75% | 10 to 100 nM | < 100 nM | > 10000 nM
Cc1ncsc1-c1ccc([C@H](C)NC(=O)[C@@H]2C[C@@H](O)CN2C(=O)[C@@H](NC(=O)[C@H]2CC[C@H](N3CCC(S(=O)(=O)NC(=O)c4nc(N5CCc6cccc(C(=O)Nc7nc8ccccc8s7)c6C5)ccc4-c4cnn(CC5CCCCC5)c4C)CC3)CC2)C(C)(C)C)cc1 [I-357] | > 75% | 100 to 500 nM | 1000 to 3000 nM | 1000 to 10000 nM
Cc1ncsc1-c1ccc(CNC(=O)[C@@H]2C[C@@H](O)CN2C(=O)[C@@H](NC(=O)[C@@H]2CCN(c3ccc(S(=O)(=O)NC(=O)c4nc(N5CCc6cccc(C(=O)Nc7nc8ccccc8s7)c6C5)ccc4-c4cnn(CC5CCCCC5)c4C)cc3)C2)C(C)(C)C)cc1 [I-410] | > 75% | 10 to 100 nM | < 100 nM | > 10000 nM
C#Cc1ccc([C@H](C)NC(=O)[C@@H]2C[C@@H](O)CN2C(=O)[C@@H](NC(=O)CCCCCS(=O)(=O)NC(=O)c2nc(N3CCc4cccc(C(=O)Nc5nc6cccnc6s5)c4C3)ccc2-c2cnn(CC3CCCCC3)c2C)C(C)(C)C)c(OCCO)c1 [I-480] | > 75% | < 10 nM | < 100 nM | > 10000 nM
Cc1ncsc1-c1ccc([C@H](C)NC(=O)[C@@H]2C[C@H](O)CN2C(=O)[C@@H](NC(=O)C2CCN(c3ccc(S(=O)(=O)NC(=O)c4nc(N5CCc6cccc(C(=O)Nc7nc8ccccc8s7)c6C5)ccc4-c4cnn(CC5CCCCC5)c4C)cc3)CC2)C(C)(C)C)cc1 [I-295] | 50 to 75% | 10 to 100 nM | 100 to 1000 nM | 1000 to 10000 nM
